Legend:
[1] = system: APESV: bentgrass (Apera spica-venti); experiment: Post-emergent Test III, herbicidal activity in wheat and barley; format: in vivo; details: Table 9, 21 d; for pest or weed control at 35 g/ha / pest or weed control at 70 g/ha / pest or weed control at 140 g/ha: Apera spica-venti, post-emergence, 504 h, post-emergent, read-out: Visual Growth Reduction (%) 21 Days After Application APESV; for pest or weed control at 35 g/ha: 35 g ai/ha; for pest or weed control at 70 g/ha: 70 g ai/ha; for GR50 APESV: dose for 50 percent growth reduction; for GR50 APESV / GR80 APESV: probit analysis; for GR80 APESV: dose for 80 percent growth reduction; for pest or weed control at 140 g/ha: 140 g ai/ha
Description: (§1) Post-emergent Test III. Seeds of the desired test plant species were planted in Sun Gro MetroMix® 306 planting mixture, which typically has a pH of 6.0 to 6.8 and an organic matter content of about 30 percent, in plastic pots with a surface area of 103.2 square centimeters (cm^2). When required to ensure good germination and healthy plants, a fungicide treatment and/or other chemical or physical treatment was applied. The plants were grown for 7-36 days (d) in a greenhouse with an approximate 14 hour (h) photoperiod which was maintained at about 18° C. during the day and 17° C. during the night. Nutrients and water were added on a regular basis and supplemental lighting was provided with overhead metal halide 1000-Watt lamps as necessary. The plants were employed for testing when they reached the second or third true leaf stage.
(§2) A weighed amount, determined by the highest rate to be tested, of each test compound was placed in a 25 mL glass vial and was dissolved in 4 mL of a 97:3 v/v mixture of acetone and DMSO to obtain concentrated stock solutions. […] The concentrated stock solutions obtained were diluted with 20 mL of an aqueous mixture containing acetone, water, isopropyl alcohol, DMSO, Agri-Dex crop oil concentrate, and X-77 surfactant in a 48:39:10:1.5:1.5:0.02 v/v ratio to obtain spray solutions containing the highest application rates. Additional application rates were obtained by serial dilution of 12 mL of the high rate solution into a solution containing 2 mL of 97:3 v/v mixture of acetone and DMSO and 10 mL of an aqueous mixture containing acetone, water, isopropyl alcohol, DMSO, Agri-Dex crop oil concentrate, and X-77 surfactant in a 48:39:10:1.5:1.5:0.02 v/v ratio to obtain ½×, ¼×, ⅛× and 1/16× rates of the high rate. Compound requirements are based upon a 12 mL application volume at a rate of 187 liters per hectare (L/ha). Formulated compounds were applied to the plant material with an overhead Mandel track sprayer equipped with 8002E nozzles calibrated to deliver 187 L/ha over an application area of 0.503 square meters at a spray height of 18 inches (43 cm) above the average plant canopy height. Control plants were sprayed in the same manner with the solvent blank.
(§3) The treated plants and control plants were placed in a greenhouse as described above and watered by subirrigation to prevent wash-off of the test compounds. After 21 d, the condition of the test plants as compared with that of the untreated plants was determined visually and scored on a scale of 0 to 100 percent where 0 corresponds to no injury and 100 corresponds to complete kill.
(§4) By applying the well-accepted probit analysis as described by J. Berkson in Journal of the American Statistical Society, 48, 565 (1953) and by D. Finney in “Probit Analysis” Cambridge University Press (1952), herbicidal injury of a specific compound at various rates can be used to calculate GR20, GR50, GR80 and GR90 values, which are defined as growth reduction factors that correspond to the effective dose of herbicide required to provide plant growth reduction (GR) of 20 percent, 50 percent, 80 percent and 90 percent, respectively. Probit analysis was applied to data collected from multiple dose rates of individual compounds utilizing the procedures explained in the following examples. The analysis of those dose rates is captured in the following tables.

[2] = system: TRZSS: wheat, including spring and winter (Triticum aestivum); experiment: as above; format: in vivo; details: Table 9, 21 d; for GR20 TRZSS: dose for 20 percent growth reduction, probit analysis; for pest or weed control at 35 g/ha / pest or weed control at 70 g/ha / pest or weed control at 140 g/ha: Triticum aestivum, post-emergence, 504 h, post-emergent, read-out: Visual Growth Reduction (%) 21 Days After Application TRZSS; for pest or weed control at 35 g/ha: 35 g ai/ha; for pest or weed control at 70 g/ha: 70 g ai/ha; for pest or weed control at 140 g/ha: 140 g ai/ha
Description: as §1, §2, §3, §4

[3] = system: LOLSS: ryegrass including, Italian ryegrass (Lolium multiflorum), rigid ryegrass (Lolium rigidum), annual ryegrass (Lolium multiflorum subsp. Gaudini); experiment: as above; format: in vivo; details: Table 9, probit analysis, 21 d; for GR50 LOLSS: dose for 50 percent growth reduction; for GR80 LOLSS: dose for 80 percent growth reduction
Description: as §1, §2, §3, §4

[4] = system: KCHSC: kochia (Kochia scoparia); experiment: as above; format: in vivo; details: Table 9, 21 d; for pest or weed control at 35 g/ha / pest or weed control at 70 g/ha / pest or weed control at 140 g/ha: Bassia scoparia, post-emergence, 504 h, post-emergent, read-out: Visual Growth Reduction (%) 21 Days After Application KCHSC; for pest or weed control at 35 g/ha: 35 g ai/ha; for pest or weed control at 70 g/ha: 70 g ai/ha; for GR50 KCHSC: dose for 50 percent growth reduction; for GR50 KCHSC / GR80 KCHSC: probit analysis; for GR80 KCHSC: dose for 80 percent growth reduction; for pest or weed control at 140 g/ha: 140 g ai/ha
Description: as §1, §2, §3, §4

[5] = system: SETVI: green foxtail (Setaria viridis); experiment: as above; format: in vivo; details: Table 9, 21 d; for pest or weed control at 35 g/ha / pest or weed control at 70 g/ha / pest or weed control at 140 g/ha: Setaria viridis, post-emergence, 504 h, post-emergent, read-out: Visual Growth Reduction (%) 21 Days After Application SETVI; for pest or weed control at 35 g/ha: 35 g ai/ha; for pest or weed control at 70 g/ha: 70 g ai/ha; for GR50 SETVI: dose for 50 percent growth reduction; for GR50 SETVI / GR80 SETVI: probit analysis; for GR80 SETVI: dose for 80 percent growth reduction; for pest or weed control at 140 g/ha: 140 g ai/ha
Description: as §1, §2, §3, §4

[6] = as above; format: in vivo, Lolium multiflorum, Lolium rigidum; details: Lolium multiflorum, post-emergence, 504 h, Table 9, post-emergent, 21 d, read-out: Visual Growth Reduction (%) 21 Days After Application LOLSS; for pest or weed control at 35 g/ha: 35 g ai/ha; for pest or weed control at 70 g/ha: 70 g ai/ha; for pest or weed control at 140 g/ha: 140 g ai/ha
Description: as §1, §2, §3, §4

[7] = system: HORSS: barley, including spring and winter (Hordeum vulgare); experiment: as above; format: in vivo; details: Table 9, 21 d; for pest or weed control at 35 g/ha / pest or weed control at 70 g/ha / pest or weed control at 140 g/ha: Hordeum vulgare, post-emergence, 504 h, post-emergent, read-out: Visual Growth Reduction (%) 21 Days After Application HORSS; for pest or weed control at 35 g/ha: 35 g ai/ha; for pest or weed control at 70 g/ha: 70 g ai/ha; for GR20 HORSS: dose for 20 percent growth reduction, probit analysis; for pest or weed control at 140 g/ha: 140 g ai/ha
Description: as §1, §2, §3, §4

C#Cc1ccc(-c2nc(C(=O)O)c(C=C)c(N)c2F)cc1 [Compound 36]
pest or weed control at 35 g/ha [1]: 0 to 29% | pest or weed control at 70 g/ha [1]: 0 to 29% | GR50 APESV [1]: >140 g ai/ha | GR80 APESV [1]: >140 g ai/ha | GR20 TRZSS [2]: 1 g ai/ha | pest or weed control at 35 g/ha [2]: 75 to 84% | pest or weed control at 70 g/ha [2]: 75 to 84% | GR50 LOLSS [3]: >140 g ai/ha | GR80 LOLSS [3]: >140 g ai/ha | pest or weed control at 35 g/ha [4]: 0 to 29% | pest or weed control at 70 g/ha [4]: 0 to 29% | GR50 KCHSC [4]: >140 g ai/ha | GR80 KCHSC [4]: >140 g ai/ha | pest or weed control at 35 g/ha [5]: 0 to 29% | pest or weed control at 70 g/ha [5]: 30 to 44% | GR50 SETVI [5]: 126 g ai/ha | GR80 SETVI [5]: >140 g ai/ha | pest or weed control at 35 g/ha [6]: 0 to 29% | pest or weed control at 70 g/ha [6]: 0 to 29% | pest or weed control at 35 g/ha [7]: 30 to 44% | pest or weed control at 70 g/ha [7]: 60 to 74% | GR20 HORSS [7]: 16 g ai/ha

C=Cc1c(C(=O)O)nc(-c2ccc(C#N)cc2)c(F)c1N [Compound 150]
pest or weed control at 35 g/ha [1]: 0 to 29% | pest or weed control at 70 g/ha [1]: 0 to 29% | GR50 APESV [1]: >140 g ai/ha | GR80 APESV [1]: >140 g ai/ha | GR20 TRZSS [2]: 1 g ai/ha | pest or weed control at 35 g/ha [2]: 60 to 74% | pest or weed control at 70 g/ha [2]: 60 to 74% | GR50 LOLSS [3]: >140 g ai/ha | GR80 LOLSS [3]: >140 g ai/ha | pest or weed control at 35 g/ha [4]: 60 to 74% | pest or weed control at 70 g/ha [4]: 60 to 74% | GR50 KCHSC [4]: 7 g ai/ha | GR80 KCHSC [4]: >140 g ai/ha | pest or weed control at 35 g/ha [5]: 0 to 29% | pest or weed control at 70 g/ha [5]: 30 to 44% | GR50 SETVI [5]: 79 g ai/ha | GR80 SETVI [5]: >140 g ai/ha | pest or weed control at 35 g/ha [6]: 0 to 29% | pest or weed control at 70 g/ha [6]: 0 to 29% | pest or weed control at 35 g/ha [7]: 30 to 44% | pest or weed control at 70 g/ha [7]: 45 to 59% | GR20 HORSS [7]: 8 g ai/ha

Nc1c(Cl)c(C(=O)O)nc(-c2ccc(C(F)(F)F)c(F)c2)c1Cl [Compound 146]
pest or weed control at 35 g/ha [1]: 95 to 100% | pest or weed control at 70 g/ha [1]: 95 to 100% | pest or weed control at 140 g/ha [1]: 95 to 100% | GR50 APESV [1]: 23 g ai/ha | GR80 APESV [1]: 34 g ai/ha | GR20 TRZSS [2]: 1 g ai/ha | pest or weed control at 35 g/ha [2]: 75 to 84% | pest or weed control at 70 g/ha [2]: 85 to 94% | pest or weed control at 140 g/ha [2]: 85 to 94% | GR50 LOLSS [3]: >140 g ai/ha | GR80 LOLSS [3]: >140 g ai/ha | pest or weed control at 35 g/ha [4]: 0 to 29% | pest or weed control at 70 g/ha [4]: 0 to 29% | pest or weed control at 140 g/ha [4]: 0 to 29% | GR50 KCHSC [4]: >140 g ai/ha | GR80 KCHSC [4]: >140 g ai/ha | pest or weed control at 35 g/ha [5]: 45 to 59% | pest or weed control at 70 g/ha [5]: 75 to 84% | pest or weed control at 140 g/ha [5]: 95 to 100% | GR50 SETVI [5]: 41 g ai/ha | GR80 SETVI [5]: 76 g ai/ha | pest or weed control at 35 g/ha [6]: 0 to 29% | pest or weed control at 70 g/ha [6]: 0 to 29% | pest or weed control at 140 g/ha [6]: 0 to 29% | pest or weed control at 35 g/ha [7]: 75 to 84% | pest or weed control at 70 g/ha [7]: 85 to 94% | pest or weed control at 140 g/ha [7]: 95 to 100% | GR20 HORSS [7]: 1 g ai/ha

Nc1c(F)c(-c2cc(F)c(Br)cc2F)nc(C(=O)O)c1Cl [Compound 42, 4-amino-6-(4-bromo-2,5-difluorophenyl)-3-chloro-5-fluoropicolinic acid]
pest or weed control at 35 g/ha [1]: 85 to 94% | pest or weed control at 70 g/ha [1]: 85 to 94% | pest or weed control at 140 g/ha [1]: 95 to 100% | GR50 APESV [1]: 7 g ai/ha | GR80 APESV [1]: 22 g ai/ha | GR20 TRZSS [2]: 1 g ai/ha | pest or weed control at 35 g/ha [2]: 85 to 94% | pest or weed control at 70 g/ha [2]: 85 to 94% | pest or weed control at 140 g/ha [2]: 95 to 100% | GR50 LOLSS [3]: 76 g ai/ha | GR80 LOLSS [3]: >140 g ai/ha | pest or weed control at 35 g/ha [4]: 85 to 94% | pest or weed control at 70 g/ha [4]: 60 to 74% | pest or weed control at 140 g/ha [4]: 95 to 100% | GR50 KCHSC [4]: 1 g ai/ha | GR80 KCHSC [4]: 1 g ai/ha | pest or weed control at 35 g/ha [5]: 85 to 94% | pest or weed control at 70 g/ha [5]: 85 to 94% | pest or weed control at 140 g/ha [5]: 95 to 100% | GR50 SETVI [5]: 1 g ai/ha | GR80 SETVI [5]: 19 g ai/ha | pest or weed control at 35 g/ha [6]: 30 to 44% | pest or weed control at 70 g/ha [6]: 45 to 59% | pest or weed control at 140 g/ha [6]: 75 to 84% | pest or weed control at 35 g/ha [7]: 85 to 94% | pest or weed control at 70 g/ha [7]: 85 to 94% | pest or weed control at 140 g/ha [7]: 95 to 100% | GR20 HORSS [7]: 1 g ai/ha

— patent publication US9113629B2, “4-amino-6-(4-substituted-phenyl)-picolinates and 6-amino-2-(4-substituted-phenyl)-pyrimidine-4-carboxylates and their use as herbicides” (DOW AGROSCIENCES LLC, priority 2013, dated 2015)
